Data on 40 compounds can be found in ChEMBL document CHEMBL6127083, “A mini-review on integrase inhibitors: The cornerstone of next-generation HIV treatment” (Eur J Med Chem, 2024).

The target in data set [1] is T1, Human immunodeficiency virus type 1 integrase (Human immunodeficiency virus 1, UniProt Q7ZJM1). In words: Inhibition of HIV-1 integrase.
Data set [2] concerns the target T1, Human immunodeficiency virus type 1 integrase. Put plainly: Inhibition of HIV-1 integrase incubated for 30 mins by strand transfer activity.
Data set [3] in a line: Inhibition of wild type HIV integrase strand transfer activity. On the set-up: species or system Human immunodeficiency virus.
Data set [4] relates to Human immunodeficiency virus 1. Put plainly: Antiviral activity against HIV1 IIIB harboring S230N mutant infected in MT4 cells assessed as reduction in virus induced cytopathic effect incubated for 5 days by MTT assay. Format: functional, organism-based. Conditions: Human immunodeficiency virus 1, IIIB, MT4, 120 h. On the technique in general: Damage to the host cells serves as the signal in cytopathic effect assays.

Data set [5] concerns Human immunodeficiency virus 1. In words: Antiviral activity against HIV1 IIIB harboring N155H mutant infected in MT4 cells assessed as reduction in virus induced cytopathic effect incubated for 5 days by MTT assay. Format: functional, organism-based. Conditions: Human immunodeficiency virus 1, IIIB, MT4, 120 h.
Data set [6] has as its system Human immunodeficiency virus 1. Put plainly: Antiviral activity against HIV-1 3B infected in human MT4 cells assessed as reduction in viral replication incubated for 5 days by MTT assay. The format is functional, organism-based. Conditions: Human immunodeficiency virus 1, 3B, MT4, 120 h. (In general: Tetrazolium dyes change colour on reduction, which living cells bring about.)

Data set [7] concerns Human immunodeficiency virus 1. In words: Antiviral activity against HIV-1 IIIB infected in human MT4 cells assessed as protection against virus induced cytopathic effect. Format: functional, organism-based. Conditions: Human immunodeficiency virus 1, IIIB.
Data set [8] concerns the target Human immunodeficiency virus type 1 reverse transcriptase (Human immunodeficiency virus 1, UniProt Q72547). In words: Inhibition of recombinant HIV-1 reverse transcriptase associated RNase H extracted from Escherichia coli BL21 (DE3) by microplate reader analysis.
The target of data set [9] is Human immunodeficiency virus type 1 integrase (Human immunodeficiency virus 1) (UniProt Q7ZJM1). Put plainly: Inhibition of HIV-1 integrase at 100 uM relative to control.
Human immunodeficiency virus type 1 integrase (Human immunodeficiency virus 1), sequence (Q7ZJM1 as listed by the source): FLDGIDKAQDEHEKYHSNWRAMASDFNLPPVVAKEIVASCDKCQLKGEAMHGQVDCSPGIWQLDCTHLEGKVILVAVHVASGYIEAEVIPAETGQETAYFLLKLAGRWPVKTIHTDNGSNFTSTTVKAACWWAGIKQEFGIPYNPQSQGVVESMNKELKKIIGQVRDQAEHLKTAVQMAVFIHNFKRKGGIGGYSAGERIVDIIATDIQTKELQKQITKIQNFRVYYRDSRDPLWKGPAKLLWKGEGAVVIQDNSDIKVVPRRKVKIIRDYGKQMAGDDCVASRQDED
The subject of data set [10] is Human immunodeficiency virus 1. Put plainly: Antiviral activity against HIV-1 IIIB infected in human MT2 cells assessed as reduction in virus induced cytopathic effect incubated overnight by ELISA method. Format: functional, organism-based. The conditions noted are these: Human immunodeficiency virus 1, 3B.
The target in data set [11] is T1, Human immunodeficiency virus type 1 integrase. Put plainly: Inhibition of HIV-1 integrase strand transfer activity.
For data set [12], the system named is Human immunodeficiency virus 1. Put plainly: Antiviral activity against HIV1 IIIB harboring E138K mutant infected in MT4 cells assessed as reduction in virus induced cytopathic effect incubated for 5 days by MTT assay. The format is functional, organism-based. The conditions noted are these: Human immunodeficiency virus 1, IIIB, MT4, 120 h.
The target of data set [13] is Human immunodeficiency virus type 1 integrase (Human immunodeficiency virus 1) (UniProt Q7ZJM1). In words: Inhibition of HIV-1 integrase at 20 uM relative to control.
Data set [14] concerns Human immunodeficiency virus 1. Put plainly: Antiviral activity against HIV1 harboring E138K mutant infected in MT4 cells assessed as reduction in virus induced cytopathic effect incubated for 5 days by MTT method. The format is functional, organism-based. Conditions: Human immunodeficiency virus 1, MT4, 120 h.
Data set [15] in a line: Half life in rat. Format: ADME. The conditions noted are these: in vivo.
A short description of data set [16]: Oral bioavailability in rat at 2 mg/kg by LC-MS/MS analysis. The format is ADME, organism-based. Conditions: in vivo.
Data set [17] concerns Human immunodeficiency virus 1. In words: Antiviral activity against HIV-1 3B infected in human MT4 cells assessed as reduction in virus-induced cytopathic effect measured for 5 days by MTT assay. The format is functional, organism-based. The conditions noted are these: Human immunodeficiency virus 1, 3B, MT4, 120 h.
Data set [18] is described as follows: Cytotoxicity against human TZM-bl cells assessed as reduction in cell viability incubated for 48 hrs by MTT assay. The format is toxicity, cell-based.

Some results are limits rather than exact numbers.

T1 sequence (Q7ZJM1 whole entry): as the sequence (Q7ZJM1 as listed by the source) above

The IC50 is the concentration that gives 50% inhibition. In the case of `CC(C)Oc1ccc(Cc2ccccc2)cc1C(=O)/C=C(\O)C(=O)O`, the IC50 in data set [1] is less than 0.1 µM.

For `CC1COC2(C1)Cn1cc(C(=O)NCc3ccc(F)cc3F)c(=O)c(O)c1C(=O)C2(C)C` (centres undefined), inhibition in data set [1] was half-maximal at 0.17 µM (IC50). As to `O=C(O)c1cc2ccc(Nc3ccc(F)cc3)cc2[nH]1`, in data set [2], half-maximal inhibition (IC50) was put at 3.11 µM.

As to `CC(C)N1CCn2cc(C(=O)NCc3ccc(F)cc3F)c(=O)c(O)c2C1=O`, the IC50 in [3] is 1.7 µM; in data set [4] it was 3 µM; in [5] it was 5 µM. Turning to `[N-]=[N+]=NCc1ccc(C(=O)CC(=O)C(=O)O)cc1CN=[N+]=[N-]`, in [6], the IC50 was found to be 14.3 µM. The EC50 is the concentration that produces a half-maximal response. Consider `O=C(O)/C(O)=C/C(=O)c1cccc(Cc2ccccc2F)c1`, for which the half-maximal effective concentration (EC50) in data set [7] was 0.02 µM. `O=C(O)c1ccc2ccc(/C=C/c3cc(O)c(O)c(O)c3)nc2c1O`: the IC50 in data set [1] was found to be 1.2 µM. With `CC1COC2(C1)Cn1cc(C(=O)NCc3cccc(Cl)c3F)c(=O)c(O)c1C(=O)C2(C)C` (centres undefined), the midpoint of inhibition in data set [1], the IC50, lay at 1.23 µM. With `COC(=O)C1C(=O)N(O)C(=O)c2ccccc21` (centres undefined), the IC50 in [8] came out at 0.06 µM. `O=C(NCc1ccc(O)c(O)c1)c1ccc2ccc(C(=O)O)c(O)c2n1` gave an IC50 in data set [1] of 1 µM. Compound `CCOC(=O)c1[nH]c2ccccc2c1Nc1ccccc1OC` showed an IC50 in [2] of 10.1 µM. As for `O=C(NCc1ccccc1)C1C(=O)N(O)C(=O)c2ccccc21` (centres undefined), the concentration for half-maximal inhibition (IC50) in data set [8] is 0.36 µM. A word on the inhibition: it is how much of the control response was suppressed. Turning to `NNC(=O)c1ncn(-c2ccc(Br)cc2)c1-c1cccc(F)c1`, the inhibition in [9] is 50%. Consider `O=C(O)c1cc2ccccc2[nH]1` [INDOLE-2-CARBOXYLIC ACID], for which inhibition in [2] was half-maximal at 32.3 µM (IC50). On to `O=C(CCC(=O)/C(O)=C/C(=O)c1cccc(Cc2ccccc2F)c1)/C(O)=C/C(=O)c1cccc(Cc2ccccc2F)c1`, for which, in data set [7], the EC50 is 0.2 µM. Turning to `COC(=O)/C(O)=C/C(=O)c1cc2cc3c(cc2n1-c1ccccc1)OCO3`, the EC50 in [10] worked out at 4.29 µM. For the compound `O=C(NCc1c(F)cc(F)cc1F)c1cn2c(c(O)c1=O)C(=O)N1[C@H]3CC[C@H](C3)O[C@@H]1C2` [BICTEGRAVIR], the IC50 in data set [11] worked out at 2.4 µM.

On to `CC1COC2(C1)[C@H](C)n1cc(C(=O)NCc3ccc(F)cc3F)c(=O)c(O)c1C(=O)C2(C)C` (some centres undefined), for which, in data set [1], the concentration for half-maximal inhibition (IC50) was 0.14 µM. With `COc1ccc(C(=O)CC(=O)C(=O)O)cc1CN=[N+]=[N-]`, the 50% inhibitory concentration (IC50) in data set [6] is greater than 25 µM. Regarding `CC(C)Cn1ccn2cc(C(=O)NCc3ccc(F)cc3F)c(=O)c(O)c2c1=O`, the IC50 in [3] worked out at 3 µM; in data set [4], 4.7 µM; in [5], 3.6 µM. For the same compound, in [12], the EC50 was 0.06 µM.

Turning to `O=c1cc(-c2ccc(O)c(O)c2)oc2cc(O[C@@H]3O[C@H](CO)[C@@H](O)[C@H](O)[C@H]3OS(=O)(=O)O)cc(O)c12`, it took 0.4 µM to reach half-maximal inhibition in [1] (IC50). Same read-out and setting: under `Cn1c(=O)c(C(=O)O)c(O)c2cc(-c3ccc(F)cc3)ccc21` stands 0.9 µM. With `COc1ccc2[nH]c(=O)c(CNC3CCCC3)cc2c1`, the inhibition in [13] worked out at 39.9%. Turning to `O=C(O)c1[nH]c2ccc([N+](=O)[O-])cc2c1COCc1ccc(C(F)(F)F)cc1`, in data set [2], the IC50 came out at 10.5 µM. With `[N-]=[N+]=NCc1cccc(C(=O)CC(=O)C(=O)O)c1`, in data set [6], the IC50 amounted to 2.1 µM. For `C[C@H]1CO[C@@H]2Cn3cc(C(=O)NCc4ccc(F)cc4F)c(=O)c(O)c3C(=O)N12` [CABOTEGRAVIR], in [14], the EC50 worked out at 4.77 µM. Besides, it took 1.8 µM to reach half-maximal inhibition in [11] (IC50). In general, half-life refers to the time in which the quantity being followed falls by half. High values mean slow decline, low ones rapid decline. With `C[C@@H]1CCO[C@H]2Cn3cc(C(=O)NCc4ccc(F)cc4F)c(=O)c(O)c3C(=O)N12` [DOLUTEGRAVIR], the half-life in data set [15] was 6.2 h. With `O=C(O)/C(O)=C/C(=O)c1cc2ccccc2n1-c1ccccc1`, in data set [10], the EC50 turned out to be 4.29 µM.

What is called bioavailability is the share of a dose that reaches the circulation, judged against a reference dose that is usually intravenous. A lower bioavailability goes with little systemic uptake. Turning to `Cc1ccc(CCOc2ccc(-c3c(C)nc(C)c([C@H](OC(C)(C)C)C(=O)O)c3N3CCC(C)(C)CC3)cc2)cc1`, the bioavailability in data set [16] turned out to be 52%. Turning to `CCCCCn1c(=O)c(C(=O)Nc2cccc([N+](=O)[O-])c2O)c(O)c2ccccc21`, inhibition in data set [1] was half-maximal at 9 µM (IC50). With `N#CCCc1cccc(C(=O)CC(=O)C(=O)O)c1`, the IC50 in data set [6] was greater than 25 µM.

Turning to `O=C(O)/C(O)=C/C(=O)c1nc2ccccc2n1Cc1ccccc1F`, the EC50 in data set [17] was 40 µM. `[N-]=[N+]=NCc1cc(CN=[N+]=[N-])cc(C(=O)CC(=O)C(=O)O)c1`: the half-maximal inhibitory concentration (IC50) in [6] is 5 µM. Broadly, the CC50 is the concentration at which the toxic effect on the cells reaches its halfway point. As for `COc1ccc(-c2ccc3c(-c4ccc(F)cc4F)cn(C)c3n2)cc1`, the CC50 at 48 h in data set [18] worked out at 49.3 µM. For the compound `CC(C)n1ccn2cc(C(=O)NCc3ccc(F)cc3F)c(=O)c(O)c2c1=O`, the IC50 in data set [3] worked out at 3.8 µM; in [4], 4.8 µM; in [5], 4.3 µM. Besides, the EC50 in [12] stood at 0.05 µM.

Turning to `Cn1cc(-c2ccc3c(c2)OCO3)c2ccc(-c3ccncc3)nc21`, the CC50 at 48 h in data set [18] was greater than 200 µM. As for `O=C(O)/C(O)=C/C(=O)c1ccc(OCc2ccccc2COc2cccc(C(=O)/C=C(\O)C(=O)O)c2)cc1`, in data set [10], the EC50 was determined as 39 µM. In the case of `CCOC(=O)c1cc2cc(NC(=O)c3cnccn3)ccc2[nH]1`, the half-maximal inhibitory concentration (IC50) in [2] came out at 11.7 µM. Regarding `O=C(O)/C(O)=C/C(=O)c1ccc(C(c2cccc(C(=O)/C=C(\O)C(=O)O)c2)c2ccccc2F)cc1` (centres undefined), in data set [10], the EC50 worked out at 17 µM. Compound `CC(C)Oc1ccc(Cc2ccccc2)cc1C(=O)CC(=O)C(=O)O` came in with an IC50 in data set [1] of 0.1 µM.
